Results as given in patent US6806230B1, “Pyrimidine derivatives and herbicides containing them” (Kumiai Chemical Industry Co., Ltd., priority 1999, dated 2004).

Legend:
Type in all cases: in vivo
[1] = tested on: monochoria (Mo); assay: Test Example 4: selectivity for a crop plant by flooded paddy field treatment; design: scale not given here; settings: for Mo (herbicidal effect index): monochoria, dose 25 gai/10a, 21st day after treatment, index per Table 44; for Mo (herbicidal effects, index): dose 25 g active ingredient per 10 ares, examined on the 21st day after treatment
Experimental: (§1) In a 100 cm^2 plastic pot, a paddy field soil was filled and paddled. Then, seeds of barnyard grass (Eo) and monochoria (Mo) were sown, and rice (Or) of second leaf stage was transplanted, and water was introduced to a depth of 3 cm. Next day, a wettable powder prepared in accordance with Formulation Example 1 was diluted with water and dropwise applied to the water surface. The dose was 25 g of the active ingredient per 10 ares. Thereafter, cultivation was carried out in a green house, and on the 21st day after the treatment, the herbicidal effects were examined in accordance with the standards of Table 44.

[2] = tested on: barnyard grass (Eo); assay: as above; design: scale not given here; settings: for Eo (herbicidal effect index): barnyard grass, dose 25 gai/10a, 21st day after treatment, index per Table 44; for Eo (herbicidal effects, index): dose 25 g active ingredient per 10 ares, examined on the 21st day after treatment
Experimental: as §1

[3] = tested on: rice (Or); assay: as above; design: scale not given here; settings: rice transplanted at second leaf stage; for Or (herbicidal effect index on crop): dose 25 gai/10a, 21st day after treatment, index per Table 44; for Or (effect on crop plant rice, index): dose 25 g active ingredient per 10 ares, examined on the 21st day after treatment
Experimental: as §1

[4] = tested on: monochoria (Mo); assay: Test Example 1: herbicidal effects by flooded paddy field treatment; design: herbicidal effects, Mo (monochoria):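 0-5 growth inhibition grade; 5 = over 90%; 4 = 70-90%; 3 = 50-70%; 2 = 30-50%; 1 = 10-30%; 0 = under 10%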; settings: for herbicidal effects, Mo (monochoria): dose 100 g active ingredient per 10 ares, examined on the 21st day after treatment, standards of Table 44; for Herbicidal effect index, Mo: dose 100 gai/10a, examined on 21st day after treatment, index 0-5 per Table 44;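 for Herbicidal effect index, Mo: 0-5 growth inhibition grade; 5 = over 90%; 4 = 70-90%; 3 = 50-70%; 2 = 30-50%; 1 = 10-30%; 0 = under 10%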
Experimental: as §1, with “pot,” for “pot, a”, “sown,” for “sown, and rice (Or) of second leaf stage was transplanted,”, “was 100” for “was 25”, “standards as identified in” for “standards of”

[5] = tested on: barnyard grass (Eo); assay: as above; design: herbicidal effects, Eo (barnyard grass):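 0-5 growth inhibition grade; 5 = over 90%; 4 = 70-90%; 3 = 50-70%; 2 = 30-50%; 1 = 10-30%; 0 = under 10%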; settings: for herbicidal effects, Eo (barnyard grass): dose 100 g active ingredient per 10 ares, examined on the 21st day after treatment, standards of Table 44; for Herbicidal effect index, Eo: dose 100 gai/10a, examined on 21st day after treatment, index 0-5 per Table 44
Experimental: as §1, with “pot,” for “pot, a”, “sown,” for “sown, and rice (Or) of second leaf stage was transplanted,”, “was 100” for “was 25”, “standards as identified in” for “standards of”

[6] = tested on: barnyard grass (Ec); assay: Test Example 2: herbicidal effects by upland soil treatment; design: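 0-5 growth inhibition grade; 5 = over 90%; 4 = 70-90%; 3 = 50-70%; 2 = 30-50%; 1 = 10-30%; 0 = under 10%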; settings: dose 100 g active ingredient per 10 ares, examined on the 21st day after treatment
Experimental: In a 80 cm^2 plastic pot, upland soil was filled, and seeds of barnyard grass (Ec) and green foxtail (Se) were sown and covered with soil. A wettable powder prepared in accordance with Formulation Example 1 was diluted with water and uniformly applied to the soil surface by means of a small size spray at a rate of 100 l per 10 ares, so that the dose of the active ingredient would be 100 g per 10 ares. Thereafter, cultivation was carried out in a green house, and on the 21st day after the treatment, the herbicidal effects were examined in accordance with the standards as identified in Table 44.
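Throughout, for Herbicidal effect index, Eo: 0-5 growth inhibition grade; 5 = over 90%; 4 = 70-90%; 3 = 50-70%; 2 = 30-50%; 1 = 10-30%; 0 = under 10%.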

Or (effect on crop plant rice, index) [3]	Structure (SMILES)	Mo (herbicidal effect index) [1]	Eo (herbicidal effect index) [2]	Or (herbicidal effect index on crop) [3]	herbicidal effects, Mo (monochoria) [4]	herbicidal effects, Eo (barnyard grass) [5]	Ec (herbicidal effects, index) [6]	Mo (herbicidal effects, index) [1]	Eo (herbicidal effects, index) [2]	Herbicidal effect index, Mo [4]	Herbicidal effect index, Eo [5]
	CN(C(=O)Cc1cccs1)C(c1ccccc1)c1cncnc1C(F)(F)F (racemic) [2-19]	5	5	1	5	5	5				
	CCCc1ncncc1C(C(C)C)N(C)C(=O)Cc1ccc(C)cc1 (racemic) [1-448]	5	5	1	5	5	5				
	CCN(C(=O)N(C)C(c1cncnc1C(F)(F)F)C(C)C)c1ccccc1 (racemic) [1-425]	5	5	1	5	5	5				
	COc1ccc(C(c2cncnc2C(F)(F)F)N(C)C(=O)Cc2ccc(F)cc2)cc1 (racemic) [1-485]	5	5	1	5	5	5				
	CN(C(=O)Cc1ccc(Cl)cc1)C(c1ccccc1F)c1cncnc1C(F)(F)F (racemic) [1-548]	5	5	1	5	5	5				
	CC(C)C(c1cncnc1C(F)(F)F)N(C)C(=O)Cc1ccsc1 (racemic) [2-2]	5	5	1	5	5	5				
	Cc1ccc(CC(=O)N(C)C(c2ccccc2C)c2cncnc2C(F)(F)F)cc1 (racemic) [1-553]	5	5	1	5	5	5				
	CCN(C(=O)Cc1ccc(Cl)cc1F)C(c1cncnc1C(F)(F)F)C(C)C (racemic) [1-321]	5	5	1	5	5	5				
	C#CCN(C(=O)Cc1ccc(Cl)s1)C(c1cncnc1CC)C(C)C (racemic) [2-73]	5	5	1	5	5	5				
	C#CCN(C(=O)N(C)C(c1cncnc1C(F)(F)F)C(C)C)c1ccc(F)cc1 (racemic) [1-533]	5	5	1	5	5	5				
	CC(c1cncnc1C(C)(C)C)N(C)C(=O)Cc1ccc(F)cc1 (racemic) [1-189]	5	5	0	5	5					
	CC(C)C(c1cncnc1C(F)(F)F)N(C)C(=O)COc1ccccc1Cl (racemic) [Compound 1-132]	5	5	0	5	5					
0	Cc1ccc(CC(=O)N(C2CC2)C(c2cncnc2C(F)(F)F)C(C)C)cc1 (racemic) [Compound 1-82]							5	5	5	5
	COc1ccccc1C(c1cncnc1C(F)(F)F)N(C)C(=O)Cc1ccc(C)cc1 (racemic) [1-491]	5	5	0	5	5					
0	Cc1ccc(CC(=O)N(C)C(c2cncnc2C(F)(F)Cl)C2CC2)cc1 (racemic) [Compound 1-93]							5	5	5	5
1	O=C(Cc1ccc(C(F)(F)F)cc1)NC(c1cncnc1C(F)(F)Cl)C1CC1 (racemic) [Compound 1-4]							4	5	5	5
0	CSc1ccc(CC(=O)N(C)C(c2cncnc2C(F)(F)F)C(C)C)cc1 (racemic) [Compound 1-44]							5	5	5	5
0	CC(C)C(c1cncnc1C(F)(F)F)N(C)C(=O)C=Cc1ccc(Cl)cc1 (racemic) [Compound 1-86]							5	5	5	5
	C#CCN(C(=O)Cc1ccc(Cl)cc1F)C(c1cncnc1C(F)(F)F)C(C)C (racemic) [1-615]	5	5	1	5	5					
0	CC(C)C(c1cncnc1C(F)(F)F)N(C)C(=O)Cc1cccc(C(F)(F)F)c1 (racemic) [Compound 1-39]							5	5	5	5
	Cc1ccc(C(C)(C)C(=O)N(C)C(c2cncnc2C(F)(F)F)C(C)C)cc1 (racemic) [1-175]	5	5	0	5	5					
1	COc1ccc(SC(=O)N(C)C(c2cncnc2C(F)(F)Cl)C(C)C)cc1 (racemic) [Compound 1-18]							4	5	5	5
1	CC(C)C(c1cncnc1C(F)(F)F)N(C)C(=O)Cc1ccc(C(C)(C)C)cc1 (racemic) [Compound 1-43]							5	5	5	5
	CC(C)C(c1cncnc1C(F)(F)F)N(C)C(=O)Cc1ccc(S(C)(=O)=O)cc1 (racemic) [Compound 1-104]	5	5	1						5	5
	CN(C(=O)Cc1ccc(Cl)s1)C(c1cncnc1C(F)(F)F)C(C)(C)C (racemic) [2-42]	5	5	0	5	5					
	CC(C)C(c1cncnc1C(F)(F)F)N(C)C(=O)COc1nc2ccccc2s1 (racemic) [2-48]	5	5	1	5	5					
	COc1ccc(C(c2cncnc2C(F)(F)F)N(C)C(=O)Cc2ccc(C)cc2)cc1 (racemic) [1-487]	5	5	1	5	5					
